In PubChem BioAssay AID489017 (The Scripps Research Institute Molecular Screening Center, 2010):
Active and inactive are the calls of the source. How the calls were made is not given here.

Experiments:
Assay in all cases: receptor, enzyme and CYP inhibition profiling – biochemical, Ricerca HitProfilingScreen, CYP450, selectivity assay for S1P4 antagonist project, profiling panel (AID 489017)
[1] = target: 5-hydroxytryptamine receptor 2B (Homo sapiens) (UniProt P41595); details: Ricerca receptor/enzyme binding panel plus CYP450; Serotonin (5-Hydroxytryptamine) 5-HT2B; at 10 µM; active compounds read high
[2] = test system: Adenosine A1; details: Ricerca receptor/enzyme binding panel plus CYP450, at 10 µM, active compounds read high
[3] = test system: Adenosine A2A; details: Ricerca receptor/enzyme binding panel plus CYP450, at 10 µM, active compounds read high
[4] = test system: Adrenergic alpha1A; details: Ricerca receptor/enzyme binding panel plus CYP450, at 10 µM, active compounds read high
[5] = test system: Adrenergic alpha1B; details: Ricerca receptor/enzyme binding panel plus CYP450, at 10 µM, active compounds read high
[6] = test system: Adrenergic beta1; details: Ricerca receptor/enzyme binding panel plus CYP450, at 10 µM, active compounds read high
[7] = target: Alpha-2A adrenergic receptor (Homo sapiens) (UniProt P08913); details: Ricerca receptor/enzyme binding panel plus CYP450; Adrenergic alpha2A; at 10 µM; active compounds read high
[8] = test system: Alpha-2A adrenergic receptor (Homo sapiens) + Histamine H1 receptor (Homo sapiens) + Mu-type opioid receptor (Homo sapiens); details: Ricerca receptor/enzyme binding panel plus CYP450; at 10 µM; active compounds read high
[9] = target: Beta-2 adrenergic receptor (Homo sapiens) (UniProt P07550); details: Ricerca receptor/enzyme binding panel plus CYP450; Adrenergic beta2; at 10 µM; active compounds read high
[10] = test system: CYP450 2C19; details: Ricerca receptor/enzyme binding panel plus CYP450, at 10 µM, active compounds read high
[11] = test system: Calcium Channel L-Type; details: Ricerca receptor/enzyme binding panel plus CYP450, Dihydropyridine site, at 10 µM, active compounds read high
[12] = test system: Cannabinoid CB1; details: Ricerca receptor/enzyme binding panel plus CYP450, at 10 µM, active compounds read high
[13] = target: Cytochrome P450 1A2 (Homo sapiens) (UniProt P05177); details: Ricerca receptor/enzyme binding panel plus CYP450; CYP450 1A2; at 10 µM; active compounds read high
[14] = target: Cytochrome P450 2C9 (Homo sapiens) (UniProt P11712); details: Ricerca receptor/enzyme binding panel plus CYP450; CYP450 2C9; at 10 µM; active compounds read high
[15] = target: Cytochrome P450 2D6 (Homo sapiens) (UniProt P10635); details: Ricerca receptor/enzyme binding panel plus CYP450; CYP450 2D6; at 10 µM; active compounds read high
[16] = target: Cytochrome P450 3A4 (Homo sapiens) (UniProt P08684); details: Ricerca receptor/enzyme binding panel plus CYP450; CYP450 3A4; at 10 µM; active compounds read high
[17] = target: D(1A) dopamine receptor (Homo sapiens) (UniProt P21728); details: Ricerca receptor/enzyme binding panel plus CYP450; Dopamine D1; at 10 µM; active compounds read high
[18] = test system: Dopamine D2S; details: Ricerca receptor/enzyme binding panel plus CYP450, at 10 µM, active compounds read high
[19] = test system: GABAA Central; details: at 10 µM, active compounds read high
[20] = test system: Glutamate NMDA; details: Ricerca receptor/enzyme binding panel plus CYP450, Phencyclidine site, at 10 µM, active compounds read high
[21] = test system: Histamine H1; details: Ricerca receptor/enzyme binding panel plus CYP450, at 10 µM, active compounds read high
[22] = target: Muscarinic acetylcholine receptor M2 (Homo sapiens) (UniProt P08172); details: Ricerca receptor/enzyme binding panel plus CYP450, at 10 µM, active compounds read high
[23] = target: Muscarinic acetylcholine receptor M3 (Homo sapiens) (UniProt P20309); details: Ricerca receptor/enzyme binding panel plus CYP450, at 10 µM, active compounds read high
[24] = test system: Nicotinic Acetylcholine; details: Ricerca receptor/enzyme binding panel plus CYP450, at 10 µM, active compounds read high
[25] = test system: Norepinephrine Transporter (NET); details: Ricerca receptor/enzyme binding panel plus CYP450, at 10 µM, active compounds read high
[26] = test system: Opiate mu (OP3, MOP); details: Ricerca receptor/enzyme binding panel plus CYP450, at 10 µM, active compounds read high
[27] = test system: Prostanoid EP4; details: Ricerca receptor/enzyme binding panel plus CYP450, at 10 µM, active compounds read high
[28] = test system: Sigma 1; details: Ricerca receptor/enzyme binding panel plus CYP450, at 10 µM, active compounds read high
[29] = test system: Sodium Channel; details: Ricerca receptor/enzyme binding panel plus CYP450, site 2, at 10 µM, active compounds read high
[30] = target: Voltage-gated inwardly rectifying potassium channel KCNH2 (Homo sapiens) (UniProt Q12809); details: Ricerca receptor/enzyme binding panel plus CYP450; Potassium Channel hERG; at 10 µM; active compounds read high
Chain of Voltage-gated inwardly rectifying potassium channel KCNH2 (Homo sapiens) (Q12809 whole entry, looked up): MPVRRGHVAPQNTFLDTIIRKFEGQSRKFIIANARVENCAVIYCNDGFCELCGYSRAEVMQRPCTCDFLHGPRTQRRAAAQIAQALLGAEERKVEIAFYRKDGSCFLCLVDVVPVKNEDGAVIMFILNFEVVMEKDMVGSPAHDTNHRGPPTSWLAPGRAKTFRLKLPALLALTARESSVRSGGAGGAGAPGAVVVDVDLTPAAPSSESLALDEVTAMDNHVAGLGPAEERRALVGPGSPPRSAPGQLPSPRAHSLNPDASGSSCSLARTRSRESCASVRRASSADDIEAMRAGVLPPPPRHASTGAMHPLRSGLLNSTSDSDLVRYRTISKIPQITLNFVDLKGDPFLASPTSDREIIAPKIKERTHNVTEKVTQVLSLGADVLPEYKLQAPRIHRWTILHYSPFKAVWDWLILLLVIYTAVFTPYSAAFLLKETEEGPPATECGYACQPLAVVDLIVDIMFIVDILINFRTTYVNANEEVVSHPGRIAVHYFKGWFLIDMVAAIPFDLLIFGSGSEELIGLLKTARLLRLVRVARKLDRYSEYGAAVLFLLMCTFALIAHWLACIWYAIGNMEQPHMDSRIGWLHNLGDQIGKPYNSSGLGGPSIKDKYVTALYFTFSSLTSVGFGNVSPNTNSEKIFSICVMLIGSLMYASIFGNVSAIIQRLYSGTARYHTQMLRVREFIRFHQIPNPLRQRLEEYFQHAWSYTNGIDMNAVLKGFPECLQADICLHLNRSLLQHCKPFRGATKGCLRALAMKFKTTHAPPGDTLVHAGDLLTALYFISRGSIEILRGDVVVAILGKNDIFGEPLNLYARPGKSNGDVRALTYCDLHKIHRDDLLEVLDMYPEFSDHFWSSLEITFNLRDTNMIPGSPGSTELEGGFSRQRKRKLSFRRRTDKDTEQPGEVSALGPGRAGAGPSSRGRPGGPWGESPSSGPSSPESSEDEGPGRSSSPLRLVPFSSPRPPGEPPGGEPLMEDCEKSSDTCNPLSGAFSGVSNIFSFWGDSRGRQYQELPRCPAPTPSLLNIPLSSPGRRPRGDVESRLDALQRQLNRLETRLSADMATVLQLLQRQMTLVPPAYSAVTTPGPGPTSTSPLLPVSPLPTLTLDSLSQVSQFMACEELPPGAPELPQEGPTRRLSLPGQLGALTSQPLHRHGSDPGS

Chain of Alpha-2A adrenergic receptor (Homo sapiens) (P08913 whole entry, looked up): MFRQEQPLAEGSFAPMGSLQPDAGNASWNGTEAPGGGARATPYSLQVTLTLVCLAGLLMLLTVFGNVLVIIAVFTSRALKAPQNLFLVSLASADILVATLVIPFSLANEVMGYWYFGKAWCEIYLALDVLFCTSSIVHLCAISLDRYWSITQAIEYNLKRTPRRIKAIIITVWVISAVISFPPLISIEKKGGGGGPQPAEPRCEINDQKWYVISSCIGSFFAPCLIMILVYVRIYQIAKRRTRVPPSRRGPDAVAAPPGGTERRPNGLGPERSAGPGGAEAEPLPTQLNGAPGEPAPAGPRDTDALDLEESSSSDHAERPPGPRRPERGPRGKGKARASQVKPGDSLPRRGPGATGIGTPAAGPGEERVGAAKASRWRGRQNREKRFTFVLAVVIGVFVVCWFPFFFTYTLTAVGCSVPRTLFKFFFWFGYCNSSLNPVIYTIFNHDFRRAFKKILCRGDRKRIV
Chain of Cytochrome P450 1A2 (Homo sapiens) (P05177 whole entry, looked up): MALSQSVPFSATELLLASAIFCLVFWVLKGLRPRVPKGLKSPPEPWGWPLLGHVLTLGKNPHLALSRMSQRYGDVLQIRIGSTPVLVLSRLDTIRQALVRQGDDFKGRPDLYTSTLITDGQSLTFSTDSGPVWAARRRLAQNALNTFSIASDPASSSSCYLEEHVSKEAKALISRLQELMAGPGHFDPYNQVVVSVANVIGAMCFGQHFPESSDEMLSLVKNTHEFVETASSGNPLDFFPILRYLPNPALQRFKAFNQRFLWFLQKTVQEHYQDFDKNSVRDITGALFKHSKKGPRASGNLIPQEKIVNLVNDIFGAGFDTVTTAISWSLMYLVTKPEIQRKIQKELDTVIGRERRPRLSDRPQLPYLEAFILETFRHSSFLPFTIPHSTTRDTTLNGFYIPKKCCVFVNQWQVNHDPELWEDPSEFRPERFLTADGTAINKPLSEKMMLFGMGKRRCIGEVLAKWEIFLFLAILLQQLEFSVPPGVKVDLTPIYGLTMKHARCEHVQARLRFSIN
Chain of Cytochrome P450 2D6 (Homo sapiens) (P10635 whole entry, looked up): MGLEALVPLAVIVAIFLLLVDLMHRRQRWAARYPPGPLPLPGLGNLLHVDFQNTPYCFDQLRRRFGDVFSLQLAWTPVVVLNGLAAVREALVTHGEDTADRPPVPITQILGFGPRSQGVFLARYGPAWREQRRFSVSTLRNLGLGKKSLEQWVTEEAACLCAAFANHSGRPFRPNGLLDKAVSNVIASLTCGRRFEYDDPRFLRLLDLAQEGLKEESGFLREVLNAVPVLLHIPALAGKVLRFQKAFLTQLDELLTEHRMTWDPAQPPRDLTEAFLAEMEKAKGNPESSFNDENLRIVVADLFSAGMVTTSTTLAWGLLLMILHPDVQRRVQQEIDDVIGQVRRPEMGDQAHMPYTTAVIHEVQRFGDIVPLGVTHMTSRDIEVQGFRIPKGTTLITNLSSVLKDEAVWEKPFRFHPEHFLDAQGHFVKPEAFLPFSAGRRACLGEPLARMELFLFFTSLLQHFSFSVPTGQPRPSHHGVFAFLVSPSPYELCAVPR
Chain of 5-hydroxytryptamine receptor 2B (Homo sapiens) (P41595 whole entry, looked up): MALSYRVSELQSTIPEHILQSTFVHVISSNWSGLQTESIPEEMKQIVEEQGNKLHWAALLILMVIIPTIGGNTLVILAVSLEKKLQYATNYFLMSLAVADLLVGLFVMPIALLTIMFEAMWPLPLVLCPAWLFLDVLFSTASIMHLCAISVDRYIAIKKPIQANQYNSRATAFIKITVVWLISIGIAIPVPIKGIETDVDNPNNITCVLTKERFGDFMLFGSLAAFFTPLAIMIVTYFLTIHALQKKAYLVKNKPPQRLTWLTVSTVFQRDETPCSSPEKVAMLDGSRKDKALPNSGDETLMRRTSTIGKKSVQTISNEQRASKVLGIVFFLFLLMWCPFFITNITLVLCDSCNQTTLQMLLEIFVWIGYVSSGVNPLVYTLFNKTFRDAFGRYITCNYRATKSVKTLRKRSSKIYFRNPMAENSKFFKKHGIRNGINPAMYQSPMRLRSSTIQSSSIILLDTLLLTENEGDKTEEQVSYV
Chain of Cytochrome P450 3A4 (Homo sapiens) (P08684 whole entry, looked up): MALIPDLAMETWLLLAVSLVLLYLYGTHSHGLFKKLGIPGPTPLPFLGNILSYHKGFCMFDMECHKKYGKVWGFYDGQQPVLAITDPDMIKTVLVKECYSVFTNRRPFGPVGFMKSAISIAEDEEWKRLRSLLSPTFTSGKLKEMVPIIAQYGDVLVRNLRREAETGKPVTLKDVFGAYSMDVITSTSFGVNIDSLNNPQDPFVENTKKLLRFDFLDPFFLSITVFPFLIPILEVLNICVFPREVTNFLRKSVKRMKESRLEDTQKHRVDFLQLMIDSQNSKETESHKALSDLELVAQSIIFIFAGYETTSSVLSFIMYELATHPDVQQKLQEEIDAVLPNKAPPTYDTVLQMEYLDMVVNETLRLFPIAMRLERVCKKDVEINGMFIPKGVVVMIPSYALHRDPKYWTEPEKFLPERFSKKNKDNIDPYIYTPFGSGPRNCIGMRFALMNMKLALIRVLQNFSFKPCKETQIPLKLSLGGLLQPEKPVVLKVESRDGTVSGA
Chain of D(1A) dopamine receptor (Homo sapiens) (P21728 whole entry, looked up): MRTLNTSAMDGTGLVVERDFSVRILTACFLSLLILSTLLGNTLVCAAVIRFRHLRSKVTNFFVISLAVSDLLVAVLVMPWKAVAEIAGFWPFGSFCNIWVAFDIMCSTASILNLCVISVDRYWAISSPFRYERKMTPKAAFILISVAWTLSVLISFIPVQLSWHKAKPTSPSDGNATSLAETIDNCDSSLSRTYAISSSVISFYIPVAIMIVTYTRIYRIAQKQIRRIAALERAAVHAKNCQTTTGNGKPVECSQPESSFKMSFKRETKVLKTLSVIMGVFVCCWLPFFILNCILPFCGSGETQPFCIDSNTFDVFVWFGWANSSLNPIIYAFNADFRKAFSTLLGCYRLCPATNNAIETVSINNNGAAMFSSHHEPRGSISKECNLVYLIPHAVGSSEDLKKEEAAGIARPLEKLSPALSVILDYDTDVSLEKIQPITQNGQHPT
Chain of Beta-2 adrenergic receptor (Homo sapiens) (P07550 whole entry, looked up): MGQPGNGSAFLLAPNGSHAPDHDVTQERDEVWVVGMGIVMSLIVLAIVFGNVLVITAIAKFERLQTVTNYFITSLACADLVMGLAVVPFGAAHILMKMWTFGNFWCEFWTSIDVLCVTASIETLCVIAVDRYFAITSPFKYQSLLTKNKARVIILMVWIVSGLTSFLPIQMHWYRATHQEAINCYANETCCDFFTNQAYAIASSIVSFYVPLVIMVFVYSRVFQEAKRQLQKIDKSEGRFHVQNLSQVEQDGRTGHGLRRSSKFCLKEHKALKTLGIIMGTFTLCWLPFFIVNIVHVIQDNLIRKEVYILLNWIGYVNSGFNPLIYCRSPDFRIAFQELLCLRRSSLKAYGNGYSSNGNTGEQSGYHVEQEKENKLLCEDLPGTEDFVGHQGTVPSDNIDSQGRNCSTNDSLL
Chain of Cytochrome P450 2C9 (Homo sapiens) (P11712 whole entry, looked up): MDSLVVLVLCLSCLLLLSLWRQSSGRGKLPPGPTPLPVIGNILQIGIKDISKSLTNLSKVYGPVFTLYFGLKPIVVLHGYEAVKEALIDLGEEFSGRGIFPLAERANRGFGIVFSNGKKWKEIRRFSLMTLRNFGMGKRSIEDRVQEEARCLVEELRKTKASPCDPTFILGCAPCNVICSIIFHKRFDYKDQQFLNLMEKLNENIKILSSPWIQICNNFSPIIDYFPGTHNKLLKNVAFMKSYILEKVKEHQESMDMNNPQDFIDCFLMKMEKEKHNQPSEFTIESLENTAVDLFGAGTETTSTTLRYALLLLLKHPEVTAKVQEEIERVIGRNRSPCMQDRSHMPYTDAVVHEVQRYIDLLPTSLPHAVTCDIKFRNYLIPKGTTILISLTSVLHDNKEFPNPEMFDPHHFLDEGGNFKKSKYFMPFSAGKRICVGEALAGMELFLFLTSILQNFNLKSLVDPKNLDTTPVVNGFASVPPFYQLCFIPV

SMILES: CCc1cccc(CC)c1NC(=O)c1ccc(-c2cc(Cl)ccc2Cl)o1
- inhibition [1]: 40% (inactive)
- inhibition [2]: 0% (inactive)
- inhibition [3]: -6% (inactive)
- inhibition [4]: -3% (inactive)
- inhibition [5]: -6% (inactive)
- inhibition [6]: 0% (inactive)
- inhibition [7]: 18% (inactive)
- inhibition [8]: -4% (inactive)
- inhibition [9]: 11% (inactive)
- inhibition [10]: 37% (inactive)
- inhibition [11]: 12% (inactive)
- inhibition [12]: 15% (inactive)
- inhibition [13]: 27% (inactive)
- inhibition [14]: 51%
- inhibition [15]: 1% (inactive)
- inhibition [16]: 22% (inactive)
- inhibition [17]: 5% (inactive)
- inhibition [18]: 13% (inactive)
- inhibition ([19]; Ricerca receptor/enzyme binding panel plus CYP450, Flunitrazepam site): 7% (inactive)
- inhibition ([19]; Ricerca receptor/enzyme binding panel plus CYP450, Muscimol site): 8% (inactive)
- inhibition [20]: 1% (inactive)
- inhibition [21]: 30% (inactive)
- inhibition [22]: -3% (inactive)
- inhibition [23]: 2% (inactive)
- inhibition [24]: -12% (inactive)
- inhibition [25]: 17% (inactive)
- inhibition [26]: 8% (inactive)
- inhibition [27]: 27% (inactive)
- inhibition [28]: -7% (inactive)
- inhibition [29]: 43% (inactive)
- inhibition [30]: 10% (inactive)
